Test results taken from US9090615B2, “Adamantyl derivatives as cannabinoid receptor 2 agonists” (Hoffmann-La Roche Inc., priority 2012, dated 2015).
Where two headings read alike, the source gives them in different places.

Columns and labels:
[1] = molecular target: T1, human CB1 receptors (Homo sapiens, UniProt P21554); experiment: functional cAMP assay, CHO cells expressing human CB1; format: cell-based
T1 construct: expressed in transfected cells; host or cells: CHO cells
Protocol: CHO cells expressing human CB1 or CB2 receptors are seeded 17-24 hours prior to the experiment 50.000 cells per well in a black 96 well plate with flat clear bottom (Corning Costar #3904) in DMEM (Invitrogen No. 31331), 1×HT supplement, with 10% fetal calf serum and incubated at 5% CO2 and 37° C. in a humidified incubator. The growth medium was exchanged with Krebs Ringer Bicarbonate buffer with 1 mM IBMX and incubated at 30° C. for 30 min. Compounds were added to a final assay volume of 100 μl and incubated for 30 min at 30° C. Using the cAMP-Nano-TRF detection kit the assay (Roche Diagnostics) was stopped by the addition of 50 μl lysis reagent (Tris, NaCl, 1.5% Triton X100, 2.5% NP40, 10% NaN3) and 50 μl detection solutions (20 μM mAb Alexa700-cAMP 1:1, and 48 μM Ruthenium-2-AHA-cAMP) and shaken for 2 h at room temperature. The time-resolved energy transfer is measured by a TRF reader (Evotec Technologies GmbH), equipped with a ND:YAG laser as excitation source. The plate is measured twice with the excitation at 355 nm and at the emission with a delay of 100 ns and a gate of 100 ns, total exposure time 10 s at 730 (bandwidth 30 nm) or 645 nm (bandwidth 75 nm), respectively. The FRET signal is calculated as follows: FRET=T730-Alexa730-P(T645-B645) with P=Ru730-B730/Ru645-B645, where T730 is the test well measured at 730 nM, T645 is the test well measured at 645 nm, B730 and B645 are the buffer controls at 730 nm and 645 nm, respectively. cAMP content is determined from the function of a standard curve spanning from 10 μM to 0.1 nM cAMP.
EC50 values were determined using Activity Base analysis (ID Business Solution, Limited). The EC50 values for a wide range of cannabinoid agonists generated from this assay were in agreement with the values published in the scientific literature.

[2] = molecular target: T2, human CB2 receptors (Homo sapiens, UniProt P34972); experiment: functional cAMP assay, CHO cells expressing human CB2; format: cell-based
T2 construct: expressed in transfected cells; host or cells: CHO cells
T2 sequence (P34972 whole entry): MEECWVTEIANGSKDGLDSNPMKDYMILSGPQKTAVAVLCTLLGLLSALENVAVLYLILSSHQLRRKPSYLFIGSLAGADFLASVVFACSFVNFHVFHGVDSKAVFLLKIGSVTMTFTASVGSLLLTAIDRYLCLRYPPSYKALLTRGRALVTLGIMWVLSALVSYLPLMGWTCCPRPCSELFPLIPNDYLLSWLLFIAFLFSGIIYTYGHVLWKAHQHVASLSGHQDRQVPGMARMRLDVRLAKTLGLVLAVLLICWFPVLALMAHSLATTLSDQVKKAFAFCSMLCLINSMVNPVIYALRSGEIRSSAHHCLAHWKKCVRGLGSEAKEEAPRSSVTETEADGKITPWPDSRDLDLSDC
Protocol: The growth medium was exchanged with Krebs Ringer Bicarbonate buffer with 1 mM IBMX and incubated at 30° C. for 30 min. Compounds were added to a final assay volume of 100 μl and incubated for 30 min at 30° C. […] The time-resolved energy transfer is measured by a TRF reader (Evotec Technologies GmbH), equipped with a ND:YAG laser as excitation source. The plate is measured twice with the excitation at 355 nm and at the emission with a delay of 100 ns and a gate of 100 ns, total exposure time 10 s at 730 (bandwidth 30 nm) or 645 nm (bandwidth 75 nm), respectively.
EC50 values were determined using Activity Base analysis (ID Business Solution, Limited).

[3] = CHO cells expressing human CB1, read-out: Ec50:CB1 - hu cAMP
[4] = CHO cells expressing human CB2, read-out: Ec50:CB2 - hu cAMP

T1 sequence (P21554 whole entry): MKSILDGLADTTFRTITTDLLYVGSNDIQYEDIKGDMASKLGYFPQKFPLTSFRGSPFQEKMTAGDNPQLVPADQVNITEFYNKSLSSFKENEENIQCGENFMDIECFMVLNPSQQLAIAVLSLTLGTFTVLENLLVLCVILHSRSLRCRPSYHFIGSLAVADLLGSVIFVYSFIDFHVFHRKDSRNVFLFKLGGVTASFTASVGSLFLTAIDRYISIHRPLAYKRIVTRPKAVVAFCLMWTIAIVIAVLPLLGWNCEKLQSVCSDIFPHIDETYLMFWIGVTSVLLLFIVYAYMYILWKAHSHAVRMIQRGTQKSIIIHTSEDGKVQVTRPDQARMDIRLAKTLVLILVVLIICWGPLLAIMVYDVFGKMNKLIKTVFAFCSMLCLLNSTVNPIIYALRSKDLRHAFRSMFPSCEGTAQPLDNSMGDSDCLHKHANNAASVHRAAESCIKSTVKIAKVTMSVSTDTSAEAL

With `CCCCOC1CCN(C(=O)C23CC4CC(CC(C4)C2)C3)c2ccccc21` (stereo not drawn) [Example 34, Adamantan-1-yl-(4-butoxy-3,4-dihydro-2H-quinolin-1-yl)-methanone] the EC50 [1] was > 10 µM and the EC50 [2] was 7.2 nM.

With `CC(C)OC1CCN(C(=O)C23CC4CC(CC(C4)C2)C3)c2ccccc21` (stereo not drawn) [Example 35, Adamantan-1-yl-(4-isopropoxy-3,4-dihydro-2H-quinolin-1-yl)-methanone] the EC50 [1, 3] was > 10 µM and the EC50 [2, 4] was 122 nM.

For `O=C(C1[C@H]2C[C@@H]3C[C@@H](C[C@H]1C3)C2)N1CCc2ccccc21` (stereo partly drawn) [Example 37, Adamantan-2-yl-(2,3-dihydro-indol-1-yl)-methanone], the EC50 [1] was > 10 µM and the EC50 [2] was 6.7 nM.

`O=C(NC12CC3CC(CC(C3)C1)C2)N1CCc2ccccc21` [Example 38, 2,3-Dihydro-indole-1-carboxylic acid adamantan-1-ylamide] was tested, and the EC50 [1, 3] was > 10 µM and the EC50 [2, 4] was 2.4 nM.

With `O=C(N1CCc2cc(F)c(F)cc21)C12CC3CC(CC(C3)C1)C2` [Example 39, Adamantan-1-yl-(5,6-difluoro-2,3-dihydro-indol-1-yl)-methanone] the EC50 [1, 3] was > 10 µM and the EC50 [2, 4] was 17.6 nM.

With `O=C1C2CC3CC1CC(C(=O)N1CCc4ccccc41)(C3)C2` [Example 40, 5-(2,3-Dihydro-indole-1-carbonyl)-adamantan-2-one] the EC50 [1, 3] was > 10 µM and the EC50 [2, 4] was 594 nM.

`O=C(N1Cc2cc(Cl)c(N3CCOCC3)cc2C1)C12CC3CC(CC(C3)C1)C2` [Example 43, Adamantan-1-yl-(5-chloro-6-morpholin-4-yl-1,3-dihydro-isoindol-2-yl)-methanone] was tested, and the EC50 [1] was > 10 µM and the EC50 [2] was 82.2 nM.

`O=C(N1Cc2cccc(F)c2C1)C12CC3CC(CC(C3)C1)C2` [Example 44, Adamantan-1-yl-(4-fluoro-1,3-dihydro-isoindol-2-yl)-methanone] was tested, and the EC50 [1, 3] was > 10 µM and the EC50 [2, 4] was 58.9 nM.

For `O=C(N1Cc2ccc(F)cc2C1)C12CC3CC(CC(C3)C1)C2` [Example 45, Adamantan-1-yl-(5-fluoro-1,3-dihydro-isoindol-2-yl)-methanone], the EC50 [1, 3] was > 10 µM and the EC50 [2, 4] was 41.7 nM.
